From PubChem BioAssay AID1963451 (Molecular Pharmacology Branch, DTP, NCI, 2024)

Tested on: 521955-158-R6-J3-PDC complex spheroid growth, % test/control
Assay: Anticancer human tumor 521955-158-R6-J3-PDC patient-derived pancreatic carcinoma cell line growth inhibition [Asc]
Settings: for IC50: curve of first compound; for viability, T/C: stronger effect = lower value; active = viability on the fitted dose curve at most 10% of control; inactive = the rest
Method: Multicellular complex tumor spheroid response to apoptosis pathway targeting inhibitors Alrizomadlin, Pelcitoclax, and Dasminapant in combination with a variety of drugs and investigational agents in selected tumor cell lines
The MDM2 inhibitor alrizomadlin, the Bcl-2/Bcl-xL inhibitor pelcitoclax, and the IAPs inhibitor dasminapant were evaluated both individually and in combination with standard of care and investigational anticancer small molecules within a complex spheroid model of solid tumors. . Complex spheroids include a stromal component modeled by human endothelial cells (HUVEC) and fibroblasts modeled by human mesenchymal stem cells (MSCs). The concentration ranges selected for each drug and investigational agent were based upon clinically achievable concentrations if the clinical Cmax of the agent was known.
Compounds. The drugs and investigational agents: alrizomadlin (APG-115; NSC831270), pelcitoclax (APG-1252; NSC835773), dasminapant (APG-1387;NSC834197), TAK-243 (NSC785004), copanlisib (NSC809693), olaparib (NSC753686), talazoparib (NSC767125), cobimetinib (NSC 768068), eltanexor (KPT-8602, NSC 794443), abemaciclib (NSC 768073), sotorasib (NSC818433), adagrasib (NSC 831453), MRTX-1133 (NSC 836407), Iadademestat (ORY1001, NSC 806812), and RMC-4630 (NSC839698), were obtained from the NCI Developmental Therapeutics Program Chemical Repository. The FDA-approved anticancer drug set is available from the Developmental Therapeutics Program at https://dtp.cancer.gov/organization/dscb/obtaining/available plates.htm. […] The stock solutions were prepared in dimethyl sulfoxide (DMSO, Sigma-Aldrich, St. Louis, MO, cat. D2650) at 800-fold the tested concentration and stored at -70 degrees C prior to their use. All drugs and investigational agents were tested over a range starting from a high concentration at or near the clinical Cmax and decreasing in half-log increments. If the clinical Cmax for an agent had not been determined, the highest concentration tested was 10 microM.
The patient-derived cancer (PDC) cell lines include five colon adenocarcinomas: 186277-243-T-J2-PDC, 616215-338-R-J1-PDC, 439559-082-T-J2-PDC, 463943-066-T-J2-PDC, and 519858-162-T-J1-PDC; three pancreatic carcinomas: 323965-272-R-J2-PDC, 521955-158-R6-J3-PDC, and 521955-158-R2-J5-PDC; two uterine sarcomas: 327498-152-R-J2-PDC and 993429-296-R-J1-PDC; two rhabdomyosarcomas: 755483-174-R-J1-PDC and 772245-204-R-J1-PDC; two soft tissue sarcomas: 126254-015-R-J1-PDC and 494315-158-R-J1-PDC; two malignant fibrous histiocytomas: 317291-083-R-J1-PDC and 596521-263-R-J1-PDC; two breast carcinomas: 171881-019-R-J1-PDC and 885512-296-R-J2-PDC; and one ovarian carcinoma: 6556581-035-R-J-PDC were obtained from the NCI PDMR, (https://pdmr.cancer.gov). The established cell lines HSSY-2 synovial sarcoma (RRID:CVCL 8719), SYO-1 synovial sarcoma (RRID:CVCL_7146), MPNST malignant peripheral neural sheath tumor were obtained from the Sloan Kettering Institute. The following established cell lines were purchased from the American Type Culture Collection (ATCC, Manassas, VA), Sor the received from the NCI repository:, PANC-1 pancreatic carcinoma (CRL-1469, RRID:CVCL_0480), OVCAR-5 ovarian carcinoma (RRID:CVCL_1628), OVCAR-8 ovarian carcinoma (RRID:CVCL_1629), , MCF-7 breast carcinoma (CRL-12584, RRID:CVCL_0031), MDA-MB-231 breast carcinoma (CRL-12532, RRID:CVCL_0062), NCI-H1876 small cell lung carcinoma (CRL-5902, RRID:CVCL_1503), NCI-H510A small cell lung carcinoma (HTB-184, RRID:CVCL_1565), NCI-H1417 (CRL-5869, RRID:CVCL_1469), and NCI-H196 small cell lung carcinoma (CRL-5823, RRID:CVCL_1509). Dr. Peter Houghton (Greehey Children's Cancer Research Institute, University of Texas Health Science Center, San Antonio, TX) provided Rh-18 rhabdomyosarcoma (RRID:CVCL_1659). Pooled donor human umbilical vein endothelial cells (HUVEC, Lonza, cat. CC-2519) and human mesenchymal stem cells (hMSC, Lonza, cat. PT-2501) were purchased from Lonza (Walkersville, MD).
Cell Culture. […]
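Also: spheroids exposed to compounds for 7 days.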
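For viability, T/C in this document: 100% = DMSO vehicle control wells.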

Cn1ncnc1[C@H]1c2n[nH]c(=O)c3cc(F)cc(c23)N[C@@H]1c1ccc(F)cc1 + Cc1c(S(C)(=O)=O)c(-c2cc(F)cc(N3CCN(c4ccc(NS(=O)(=O)c5ccc(NC(CCN6CCC(C(=O)OCCCP(=O)(O)O)CC6)CSc6ccccc6)c(S(=O)(=O)C(F)(F)F)c5)cc4)CC3)c2)c(-c2ccc(Cl)cc2)n1C(C)C
4.81 nM: IC50 (second compound 0.316 µM)
inactive: viability, T/C (second compound 0.0316 µM, first compound 0.000316 µM) 84.8% | viability, T/C (second compound 0.0316 µM, first compound 0.001 µM) 92.7% | viability, T/C (second compound 0.0316 µM, first compound 0.00316 µM) 70.5% | viability, T/C (second compound 0.0316 µM, first compound 0.01 µM) 82% | viability, T/C (second compound 0.0316 µM, first compound 0.0316 µM) 77% | viability, T/C (second compound 0.0316 µM, first compound 0.1 µM) 68.9% | viability, T/C (second compound 0.1 µM, first compound 0.000316 µM) 86.3% | viability, T/C (second compound 0.1 µM, first compound 0.001 µM) 75.1% | viability, T/C (second compound 0.1 µM, first compound 0.00316 µM) 75.3% | viability, T/C (second compound 0.1 µM, first compound 0.01 µM) 82.3% | viability, T/C (second compound 0.1 µM, first compound 0.0316 µM) 61% | viability, T/C (second compound 0.1 µM, first compound 0.1 µM) 67.6% | viability, T/C (second compound 0.316 µM, first compound 0.000316 µM) 53.4% | viability, T/C (second compound 0.316 µM, first compound 0.001 µM) 54.2% | viability, T/C (second compound 0.316 µM, first compound 0.00316 µM) 52.5% | viability, T/C (second compound 0.316 µM, first compound 0.01 µM) 44.4% | viability, T/C (second compound 0.316 µM, first compound 0.0316 µM) 40.8% | viability, T/C (second compound 0.316 µM, first compound 0.1 µM) 51.5% | viability, T/C (second compound 1 µM, first compound 0.000316 µM) 35.1% | viability, T/C (second compound 1 µM, first compound 0.001 µM) 32.7% | viability, T/C (second compound 1 µM, first compound 0.00316 µM) 41.4% | viability, T/C (second compound 1 µM, first compound 0.01 µM) 29.8% | viability, T/C (second compound 1 µM, first compound 0.0316 µM) 35% | viability, T/C (second compound 1 µM, first compound 0.1 µM) 40.9% | viability, T/C (second compound 3.16 µM, first compound 0.000316 µM) 23% | viability, T/C (second compound 3.16 µM, first compound 0.001 µM) 24.3% | viability, T/C (second compound 3.16 µM, first compound 0.00316 µM) 21.1% | viability, T/C (second compound 3.16 µM, first compound 0.01 µM) 19.9% | viability, T/C (second compound 3.16 µM, first compound 0.0316 µM) 20.8% | viability, T/C (second compound 3.16 µM, first compound 0.1 µM) 16.4% | viability, T/C (second compound 10 µM, first compound 0.000316 µM) 14.8% | viability, T/C (second compound 10 µM, first compound 0.001 µM) 17.9% | viability, T/C (second compound 10 µM, first compound 0.00316 µM) 26.6% | viability, T/C (second compound 10 µM, first compound 0.01 µM) 15.5% | viability, T/C (second compound 10 µM, first compound 0.0316 µM) 15% | viability, T/C (second compound 10 µM, first compound 0.1 µM) 11%
> 100 nM: IC50 (second compound 0.0316 µM) | IC50 (second compound 0.1 µM)
< 0.316 nM: IC50 (second compound 1 µM) | IC50 (second compound 3.16 µM) | IC50 (second compound 10 µM)

C#Cc1c(F)ccc2cc(O)cc(-c3ncc4c(N5CC6CCC(C5)N6)nc(OCC56CCCN5CC(F)C6)nc4c3F)c12 (centres undefined) + CCN1C(C(=O)NC23CCC(C(=O)O)(CC2)CC3)C(c2cccc(Cl)c2F)C2(C(=O)Nc3cc(Cl)ccc32)C12CCCCC2
518 nM: IC50 (second compound 0.00949 µM)
329 nM: IC50 (second compound 0.03 µM)
903 nM: IC50 (second compound 0.949 µM)
214 nM: IC50 (second compound 0.0949 µM)
223 nM: IC50 (second compound 0.3 µM)
inactive: viability, T/C (second compound 0.00949 µM, first compound 0.0316 µM) 76.9% | viability, T/C (second compound 0.00949 µM, first compound 0.1 µM) 60.5% | viability, T/C (second compound 0.00949 µM, first compound 0.316 µM) 50.2% | viability, T/C (second compound 0.00949 µM, first compound 1 µM) 49.1% | viability, T/C (second compound 0.00949 µM, first compound 3.16 µM) 39.3% | viability, T/C (second compound 0.00949 µM, first compound 10 µM) 28.2% | viability, T/C (second compound 0.03 µM, first compound 0.0316 µM) 72.2% | viability, T/C (second compound 0.03 µM, first compound 0.1 µM) 58% | viability, T/C (second compound 0.03 µM, first compound 0.316 µM) 47.1% | viability, T/C (second compound 0.03 µM, first compound 1 µM) 45.4% | viability, T/C (second compound 0.03 µM, first compound 3.16 µM) 41.4% | viability, T/C (second compound 0.03 µM, first compound 10 µM) 31.7% | viability, T/C (second compound 0.0949 µM, first compound 0.0316 µM) 81.6% | viability, T/C (second compound 0.0949 µM, first compound 0.1 µM) 55.8% | viability, T/C (second compound 0.0949 µM, first compound 0.316 µM) 46.5% | viability, T/C (second compound 0.0949 µM, first compound 1 µM) 40.2% | viability, T/C (second compound 0.0949 µM, first compound 3.16 µM) 43.6% | viability, T/C (second compound 0.0949 µM, first compound 10 µM) 30.3% | viability, T/C (second compound 0.3 µM, first compound 0.0316 µM) 72.1% | viability, T/C (second compound 0.3 µM, first compound 0.1 µM) 65.9% | viability, T/C (second compound 0.3 µM, first compound 0.316 µM) 42.4% | viability, T/C (second compound 0.3 µM, first compound 1 µM) 40.4% | viability, T/C (second compound 0.3 µM, first compound 3.16 µM) 39.2% | viability, T/C (second compound 0.3 µM, first compound 10 µM) 29.3% | viability, T/C (second compound 0.949 µM, first compound 0.0316 µM) 68.3% | viability, T/C (second compound 0.949 µM, first compound 0.1 µM) 66% | viability, T/C (second compound 0.949 µM, first compound 0.316 µM) 51% | viability, T/C (second compound 0.949 µM, first compound 1 µM) 53% | viability, T/C (second compound 0.949 µM, first compound 3.16 µM) 41.7% | viability, T/C (second compound 0.949 µM, first compound 10 µM) 34.2% | viability, T/C (second compound 3 µM, first compound 0.0316 µM) 57.9% | viability, T/C (second compound 3 µM, first compound 0.1 µM) 48.4% | viability, T/C (second compound 3 µM, first compound 0.316 µM) 51% | viability, T/C (second compound 3 µM, first compound 1 µM) 41.3% | viability, T/C (second compound 3 µM, first compound 3.16 µM) 50.4% | viability, T/C (second compound 3 µM, first compound 10 µM) 25.7%
< 31.6 nM: IC50 (second compound 3 µM)
